In US20220204498A1, “PYRIDO-PYRIMIDINYL COMPOUNDS AND METHODS OF USE” (Genentech, Inc., priority 2019, published 2022):
Structures can show the parent of a compound that is named as a salt.

target: T1, IRE1α (Homo sapiens, UniProt O75460, D688N); test: IRE1α TR-FRET competition binding assay (IRE1α HTRF); conditions: His-tagged IRE1α kinase dead construct (KR, D688N) 0.25 nM; Alexa fluor 647-labeled ATP competitive probe 2 nM; one hour at room temperature; read-out: IRE1α (alpha) HTRF (IC50)
T1 construct: containing the kinase and RNase domains (KR, AA G547-1L977, D688N); made in house; host or cells: Sf9 insect cells
T1 sequence (O75460 547-977 D688N): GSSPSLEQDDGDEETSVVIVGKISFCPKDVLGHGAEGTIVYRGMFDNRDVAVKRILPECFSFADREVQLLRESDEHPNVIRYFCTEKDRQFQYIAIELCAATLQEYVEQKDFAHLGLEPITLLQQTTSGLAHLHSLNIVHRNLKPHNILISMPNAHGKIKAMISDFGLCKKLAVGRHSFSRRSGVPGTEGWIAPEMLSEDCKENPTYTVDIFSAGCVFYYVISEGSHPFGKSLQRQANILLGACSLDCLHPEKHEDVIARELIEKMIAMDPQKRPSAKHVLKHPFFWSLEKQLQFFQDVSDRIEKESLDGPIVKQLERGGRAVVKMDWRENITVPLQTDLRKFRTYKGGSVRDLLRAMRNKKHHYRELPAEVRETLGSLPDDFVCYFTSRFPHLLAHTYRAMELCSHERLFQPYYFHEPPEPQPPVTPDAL
Experimental: Example 59. IRE1α TR-FRET Competition Binding Assay
To determine the affinity of compound binding to the kinase domain of IRE1α, a time-resolved fluorescence resonance energy transfer (TR-FRET) competition assay was used.
A His-tagged IRE1α kinase dead construct containing the kinase and RNase domains (KR, AA G547-1L977, D688N) was expressed in Sf9 insect cells. The purified protein (final concentration 0.25 nM) was pre-incubated with anti-His Europium labeled antibody (Life Technologies PV5596, final concentration 2 nM) for one hour at 4° C. in TR-FRET Assay Buffer (50 mM HEPES, pH 7.5, 10 mM MgCl2, 0.083 mM Brij 35, 1 mM DTT, and 0.1% bovine gamma globulin) prior to addition to test compounds. An Alexa fluor 647-labeled probe based on an ATP competitive inhibitor was added to a final concentration of 2 nM. Reactions were carried out for one hour at room temperature in a final volume of 20 μL in 384 well white ProxiPlates (Perkin Elmer 6008289). Binding of the probe to the IRE1α protein was detected in an Envision instrument (PerkinElmer) equipped with a TRF laser option and a LANCE/Delfia Dual/Bias D400/D630 mirror (Ex 347 nm, 1st Em 665 nm, 2nd Em 615 nm).

| Structure (SMILES) | IC50 |
| --- | --- |
| Cc1cc(-c2ccc(NS(=O)(=O)c3cnccc3C(F)(F)F)c(F)c2)nc2cnc(N[C@H]3CC[C@H](N(C)C)CC3)nc12 [Compound 156, N-[4-[2-[[(1,4-trans)-4-(Dimethylamino)cyclohexyl]amino]-8-methyl-pyrido[3,2-d]pyrimidin-6-yl]-2-fluoro-phenyl]-4-(trifluoromethyl)pyridine-3-sulfonamide] | 0.18 nM |
| Cc1nc(NS(=O)(=O)c2ccccc2Cl)ccc1-c1cc(C(F)F)c2nc(N[C@H]3CC[C@H](N(C)C)CC3)ncc2n1 [Compound 145, 2-Chloro-N-[5-[8-(difluoromethyl)-2-[[(1,4-trans)-4-(dimethylamino)cyclohexyl]amino]pyrido[3,2-d]pyrimidin-6-yl]-6-methyl-2-pyridyl]benzenesulfonamide] | 0.25 nM |
| CCc1cc(-c2ccc(NS(=O)(=O)Cc3ccc(F)cc3)nc2OC)nc2cnc(N[C@H]3CC[C@H](N(C)C)CC3)nc12 [Compound 142, N-(5-(2-(((1,4-trans)-4-(Dimethylamino)cyclohexyl)amino)-8-ethylpyrido[3,2-d]pyrimidin-6-yl)-6-methoxypyridin-2-yl)-1-(4-fluorophenyl)methanesulfonamide] | 0.14 nM |
| CCc1cc(-c2ccc(NS(=O)(=O)c3ccccc3Cl)c(F)c2)nc2cnc(N[C@@H]3CNC[C@@H](F)C3)nc12 [Compound 123, 2-Chloro-N-(4-(8-ethyl-2-(((3S,5S)-5-fluoropiperidin-3-yl)amino)pyrido[3,2-d]pyrimidin-6-yl)-2-fluorophenyl)benzenesulfonamide formate] | 0.18 nM |
| Cc1nc(NS(=O)(=O)c2ccccc2C#N)ccc1-c1cc(C)c2nc(N[C@H]3CC[C@H](N(C)C)CC3)ncc2n1 [Compound 159, 2-Cyano-N-(5-(2-(((1,4-trans)-4-(dimethylamino)cyclohexyl)amino)-8-methylpyrido[3,2-d]pyrimidin-6-yl)-6-methylpyridin-2-yl)benzenesulfonamide] | 0.33 nM |
| Cc1cc(-c2ccc3c(c2)CCS(=O)(=O)N3)nc2cnc(N[C@H]3CC[C@H](N(C)C)CC3)nc12 [Compound 151, 6-(2-(((1,4-trans)-4-(Dimethylamino)cyclohexyl)amino)-8-methylpyrido[3,2-d]pyrimidin-6-yl)-3,4-dihydro-1H-benzo[c][1,2]thiazine 2,2-dioxide] | 39 nM |
| O=S(=O)(Cc1ccccc1)Nc1ccc(-c2ccc3nc(N[C@@H]4CNC[C@@H](F)C4)ncc3n2)cc1F [Compound 100, N-(2-Fluoro-4-(2-(((3S,5S)-5-fluoropiperidin-3-yl)amino)pyrido[3,2-d]pyrimidin-6-yl)phenyl)-1-phenylmethanesulfonamide] | 0.89 nM |
| CN(C)[C@H]1CC[C@H](Nc2ncc3nc(-c4ccc(NS(=O)(=O)Cc5ccc(F)cc5)c(F)c4)cc(CF)c3n2)CC1 [Compound 130, N-[4-[2-[[(1,4-trans)-4-(Dimethylamino)cyclohexyl]amino]-8-(fluoromethyl)pyrido[3,2-d]pyrimidin-6-yl]-2-fluoro-phenyl]-1-(4-fluorophenyl)methanesulfonamide] | 0.2 nM |
| O=S(=O)(Cc1ccccc1)Nc1ccc(-c2cnc3nc(N[C@@H]4CNC[C@@H](F)C4)ncc3c2)cc1F [Compound 109, N-(2-Fluoro-4-(2-(((3S,5S)-5-fluoropiperidin-3-yl)amino)pyrido[2,3-d]pyrimidin-6-yl)phenyl)-1-phenylmethanesulfonamide] | 5.7 nM |
| Cc1cc(-c2ccc(NS(=O)(=O)CCC(F)(F)F)c(F)c2)nc2cnc(N[C@H]3CC[C@H](N(C)C)CC3)nc12 [Compound 107, N-(4-(2-(((1r,4r)-4-(Dimethylamino)cyclohexyl)amino)-8-methylpyrido[3,2-d]pyrimidin-6-yl)-2-fluorophenyl)-3,3,3-trifluoropropane-1-sulfonamide] | 0.2 nM |
| Cc1cc(NS(=O)(=O)c2ccccc2Cl)ncc1-c1cc(C)c2nc(N[C@H]3CC[C@H](N(C)C)CC3)ncc2n1 [Compound 149, 2-Chloro-N-(5-(2-(((1,4-trans)-4-(dimethylamino)cyclohexyl)amino)-8-methylpyrido[3,2-d]pyrimidin-6-yl)-4-methylpyridin-2-yl)benzenesulfonamide] | 3.3 nM |
| Cc1cc(-c2ccc(NS(=O)(=O)CCC(C)(F)F)c(F)c2)nc2cnc(N[C@H]3CC[C@H](N(C)C)CC3)nc12 [Compound 113, N-(4-(2-(((1,4-trans)-4-(Dimethylamino)cyclohexyl)amino)-8-methylpyrido[3,2-d]pyrimidin-6-yl)-2-fluorophenyl)-3,3-difluorobutane-1-sulfonamide formate] | 0.17 nM |
| Cc1cc(-c2cc(F)c(NS(=O)(=O)Cc3ccc(F)cc3)c(F)c2F)nc2cnc(N[C@H]3CC[C@H](N(C)C)CC3)nc12 [Compound 153, N-(4-(2-(((1,4-trans)-4-(Dimethylamino)cyclohexyl)amino)-8-methylpyrido[3,2-d]pyrimidin-6-yl)-2,3,6-trifluorophenyl)-1-(4-fluorophenyl)methanesulfonamide] | 0.16 nM |
| Cc1cc(-c2cc(F)c(NS(=O)(=O)c3ccccc3Cl)c(F)c2F)nc2cnc(N[C@H]3CC[C@H](N(C)C)CC3)nc12 [Compound 155, 2-Chloro-N-(4-(2-(((1,4-trans)-4-(dimethylamino)cyclohexyl)amino)-8-methylpyrido[3,2-d]pyrimidin-6-yl)-2,3,6-trifluorophenyl)benzenesulfonamide] | 0.19 nM |
| Cc1cc(-c2ccc(NS(=O)(=O)c3ccccc3Cl)c(F)c2)nc2cnc(N[C@H]3CC[C@H](N(C)C)CC3)nc12 [Compound 128, 2-Chloro-N-(4-(2-(((1,4-trans)-4-(dimethylamino)cyclohexyl)amino)-8-methylpyrido[3,2-d]pyrimidin-6-yl)-2-fluorophenyl)benzenesulfonamide] | 0.16 nM |
| CN(C)[C@H]1CC[C@H](Nc2ncc3nc(-c4ccc(NS(=O)(=O)Cc5ccc(F)cc5)c(F)c4)cc(C(F)F)c3n2)CC1 [Compound 131, N-1,4-trans-[4-[8-(Difluoromethyl)-2-[[4-(dimethylamino)cyclohexyl]amino]pyrido[3,2-d]pyrimidin-6-yl]-2-fluoro-phenyl]-1-(4-fluorophenyl)methanesulfonamide] | 0.15 nM |
| CC(Oc1nc2nc(N[C@@H]3CNC[C@@H](F)C3)ncc2cc1-c1ccc(NS(=O)(=O)Cc2ccccc2)c(F)c1F)C(F)F (single isomer, unassigned) [Compound 103] | 1.1 nM |
| O=S(=O)(Cc1ccccc1)Nc1ccc(-c2cc3cnc(N[C@@H]4CNC[C@@H](F)C4)nc3cn2)cc1F [Compound 101, N-(2-Fluoro-4-(2-(((3S,5S)-5-fluoropiperidin-3-yl)amino)pyrido[3,4-d]pyrimidin-6-yl)phenyl)-1-phenylmethanesulfonamide] | 3 nM |
| CCc1cc(-c2ccc(NS(=O)(=O)c3ccccc3C(F)F)nc2C)nc2cnc(N[C@H]3CC[C@H](N(C)C)CC3)nc12 [Compound 147, 2-(Difluoromethyl)-N-(5-(2-(((1,4-trans)-4-(dimethylamino)cyclohexyl)amino)-8-ethylpyrido[3,2-d]pyrimidin-6-yl)-6-methylpyridin-2-yl)benzenesulfonamide] | 0.28 nM |
| O=S(=O)(Cc1ccc(F)cc1)Nc1ccc(-c2cc(C(F)F)c3nc(N[C@@H]4CNC[C@@H](F)C4)ncc3n2)cc1F [Compound 139, N-[4-[8-(Difluoromethyl)-2-[[(3S,5S)-5-fluoro-3-piperidyl]amino]pyrido[3,2-d]pyrimidin-6-yl]-2-fluoro-phenyl]-1-(4-fluorophenyl)methanesulfonamide hydrochloride] | 0.23 nM |
| Cc1cc(-c2c(F)cc(NS(=O)(=O)Cc3ccc(F)cc3)cc2F)nc2cnc(N[C@H]3CC[C@H](N(C)C)CC3)nc12 [Compound 140, N-(4-(2-(((1,4-trans)-4-(Dimethylamino)cyclohexyl)amino)-8-methylpyrido[3,2-d]pyrimidin-6-yl)-3,5-difluorophenyl)-1-(4-fluorophenyl)methanesulfonamide] | 4.5 nM |
| CN(C)[C@H]1CC[C@H](Nc2ncc3nc(-c4ccc(NS(=O)(=O)c5ccccc5Cl)c(F)c4)cc(C(F)F)c3n2)CC1 [Compound 143, 2-Chloro-N-[(1,4-trans)-4-[8-(difluoromethyl)-2-[[4-(dimethylamino)cyclohexyl]amino]pyrido[3,2-d]pyrimidin-6-yl]-2-fluoro-phenyl]benzenesulfonamide] | 0.2 nM |
| Cc1cc(-c2ccc(NS(=O)(=O)Cc3ccc(F)cc3)c(F)c2)nc2cnc(N[C@@H]3CNC[C@@H](F)C3)nc12 [Compound 121, N-(2-Fluoro-4-(2-(((3S,5S)-5-fluoropiperidin-3-yl)amino)-8-methylpyrido[3,2-d]pyrimidin-6-yl)phenyl)-1-(4-fluorophenyl)methanesulfonamide formate] | 0.27 nM |
| Cc1cc(-c2ccc(NS(=O)(=O)c3ccccc3Cl)nc2)nc2cnc(N[C@H]3CC[C@H](N(C)C)CC3)nc12 [Compound 135, 2-Chloro-N-(5-(2-(((1,4-trans)-4-(dimethylamino)cyclohexyl)amino)-8-methylpyrido[3,2-d]pyrimidin-6-yl)pyridin-2-yl)benzenesulfonamide] | 0.32 nM |
